Data as given in US8906866B2, “Antibiotic compositions for the treatment of gram negative infections” (priority 2010, dated 2014).
*1 amine or outer side, *2 acyl side, *3 side chain or, on linkers, in order; H or OH if unused. Where a SMILES comes first, the peptide text is derived from it. Bridges are numbered along the chain shown (N, C = ends). [ ]: non-standard residue; d: D form. The star is where a group is joined. ξ: configuration not given here. Octanoyl(6-Me) = CCC(C)CCCCC(=O)*; Thr(3ξ) = CC(O)[C@H](N)C(=O)O; NH(2-ClPh) = Clc1ccccc1N*; X1 = CC[C@H](C)CCCCC(=O)*; dDab = NCC[C@@H](N)C(=O)O; Dab = NCC[C@H](N)C(=O)O; CO = O=C([*:1])[*:2]; ξDab = NCCC(N)C(=O)O

Columns and labels:
[1] = tested on: K. pneu; experiment: MIC50 and MIC90, CLSI broth microdilution, panel of Gram negative strains; assay type: cell-based, Klebsiella pneumoniae; parameters: key: A: a measured MIC value equal to that of polymyxin B; a measured MIC value less than the corresponding MIC value measured for polymyxin B; a measured MIC value greater than the corresponding MIC value measured for polymyxin B; conditions: relative to polymyxin B; some strains multi-drug resistant
Description: (§1) MIC testing can be performed according to Clinical and Laboratory Standards Institute (CLSI) M7-A7 (2006) broth microdilution methods. Unless otherwise indicated, MIC values are provided in units of micrograms per milliliter.
(§2) One day prior to testing, individual colonies were isolated by streaking onto rich, non-selective Tryptic Soy agar with 5% lysed sheeps blood (TSAB) with incubation at 35-37° C. for 18-24 hours.
(§3) Cultures were prepared by touching 3-5 colonies into 3 mL of cation-adjusted Mueller Hinton Broth (caMHB) in a 14-mL tube (caMHB was prepared and sterilized according to manufacturer's specifications).
(§4) OD600 of growing cultures was measured and adjusted to approximately 10^5 colony forming units per mL (CFU/mL) in caMHB for MIC inoculation (approximately OD600 0.001).
(§5) Diluted cultures were used to inoculate 50 μL per well in broth microdilution assays (final volume 100 μl per well; compounds were prepared in two-fold dilutions).
(§6) Plates were incubated 16-20 hours at 37° C., with shaking at 200 rpm.
(§7) OD600 was determined for all wells. Growth was defined as OD600>0.1. MICs were defined as the lowest concentration producing no visible turbidity (OD600<0.1).

[2] = tested on: E. coli; experiment: MIC50/90 against small panels (n = 35); assay type: cell-based, Escherichia coli; parameters: key: A: a MIC value measurement that is the same as that observed for polymyxin B; a MIC value measured that is lower than the comparable value observed for polymxin B; a MIC value measured that is higher than the comparable value observed for polymyxin B; conditions: small panel n = 35, relative to polymyxin B
Description: (§8) Antibacterial potency can be assessed by broth microdilution according to CLSI guidelines, plates can be incubated at 37° C., and aeration (rotation at 200 rpm) can be employed. In some assays, surfactant (Survanta, Abbott Laboratories) can be added to give a final concentration of 1, 10 and 40% in caMHB. Native polymyxin A, polymyxin B and the comparator compound of Formula II (polymyxin B decapeptide with an o-chlorophenyl urea tail) were included for comparison.

[3] = tested on: P. aeruginosa; experiment: MIC50/90 against small panels (n = 35); assay type: cell-based, Pseudomonas aeruginosa; parameters: key: A: a MIC value measurement that is the same as that observed for polymyxin B; a MIC value measured that is lower than the comparable value observed for polymxin B; a MIC value measured that is higher than the comparable value observed for polymyxin B; conditions: small panel n = 35, relative to polymyxin B
Description: as §8

[4] = tested on: A. baumannii; experiment: MIC50/90 against small panels (n = 35); assay type: cell-based, Acinetobacter baumannii; parameters: key: A: a MIC value measurement that is the same as that observed for polymyxin B; a MIC value measured that is lower than the comparable value observed for polymxin B; a MIC value measured that is higher than the comparable value observed for polymyxin B; conditions: small panel n = 35, relative to polymyxin B
Description: as §8

[5] = tested on: P. aeru; experiment: MIC50 and MIC90, CLSI broth microdilution, panel of Gram negative strains; assay type: cell-based, Pseudomonas aeruginosa; parameters: key: A: a measured MIC value equal to that of polymyxin B; a measured MIC value less than the corresponding MIC value measured for polymyxin B; a measured MIC value greater than the corresponding MIC value measured for polymyxin B; conditions: relative to polymyxin B, some strains multi-drug resistant
Description: as §1, §2, §3, §4, §5, §6, §7

[6] = tested on: E. coli 1527; experiment: MIC against the primary screening panel (broth microdilution); assay type: cell-based, Escherichia coli; parameters: key: A: a MIC value measurement that is the same as that observed for polymyxin B; a MIC value measured that is lower than the comparable value observed for polymxin B; a MIC value measured that is higher than the comparable value observed for polymyxin B; conditions: relative to polymyxin B
Description: as §8

[7] = tested on: K. pneumoniae 933; experiment: as above; assay type: cell-based, Klebsiella pneumoniae; parameters: key: A: a MIC value measurement that is the same as that observed for polymyxin B; a MIC value measured that is lower than the comparable value observed for polymxin B; a MIC value measured that is higher than the comparable value observed for polymyxin B; conditions: relative to polymyxin B
Description: as §8

[8] = tested on: E. coli; experiment: MIC50 and MIC90, CLSI broth microdilution, panel of Gram negative strains; assay type: cell-based, Escherichia coli; parameters: key: A: a measured MIC value equal to that of polymyxin B; a measured MIC value less than the corresponding MIC value measured for polymyxin B; a measured MIC value greater than the corresponding MIC value measured for polymyxin B; conditions: relative to polymyxin B; some strains multi-drug resistant
Description: as §1, §2, §3, §4, §5, §6, §7

[9] = tested on: K. pneumoniae; experiment: MIC50/90 against small panels (n = 35); assay type: cell-based, Klebsiella pneumoniae; parameters: key: A: a MIC value measurement that is the same as that observed for polymyxin B; a MIC value measured that is lower than the comparable value observed for polymxin B; a MIC value measured that is higher than the comparable value observed for polymyxin B; conditions: small panel n = 35, relative to polymyxin B
Description: as §8

[10] = tested on: P. aeruginosa 44; experiment: Neutropenic mouse lung infection model; assay type: in vivo; conditions: for Lungs cleared within one log10 of limit of detection: 8 through 20 mg/kg dose levels
Description: Compound of Formula (Ia) was tested in a murine thigh model. For the thigh model, female CD-1 mice were rendered neutropenic by IP injection on days −4 and −1 with 150 and 100 mg/kg cyclophosphamide, respectively. On day 0 mice were infected with 1×10^7 colony-forming units (cfu) of A. baumannii 1570 in one thigh muscle, and then administered compound SC in a dose ranging from 2 to 12 mg/kg at 1 and 6 hours post-infection.
The mouse lung model was run in the same manner as the thigh infection model, except that mice were infected IN with 1×10^7 cfu of P. aeruginosa 44 on day 0. Doses administered in the lung study ranged from 8 to 20 mg/kg. The ED−3log10 was based on cfu determination from the lung tissue 24 hours post-infection.

[11] = tested on: A. baumannii 1570; experiment: MIC against the primary screening panel (broth microdilution); assay type: cell-based, Acinetobacter baumannii; parameters: key: A: a MIC value measurement that is the same as that observed for polymyxin B; a MIC value measured that is lower than the comparable value observed for polymxin B; a MIC value measured that is higher than the comparable value observed for polymyxin B; conditions: relative to polymyxin B
Description: as §8

[12] = tested on: P. aeruginosa 44; experiment: as above; assay type: cell-based, Pseudomonas aeruginosa; parameters: key: A: a MIC value measurement that is the same as that observed for polymyxin B; a MIC value measured that is lower than the comparable value observed for polymxin B; a MIC value measured that is higher than the comparable value observed for polymyxin B; conditions: relative to polymyxin B
Description: as §8

[13] = tested on: P. aeruginosa #44; experiment: MICs for P. aeruginosa #44 in the presence of surfactant; assay type: cell-based, Pseudomonas aeruginosa; parameters: key: A: a MIC value measurement that is the same as that observed for polymyxin B; a MIC value measured that is lower than the comparable value observed for polymxin B; a MIC value measured that is higher than the comparable value observed for polymyxin B
Description: as §8

[14] = tested on: A. baum; experiment: MIC50 and MIC90, CLSI broth microdilution, panel of Gram negative strains; assay type: cell-based, Acinetobacter baumannii; parameters: key: A: a measured MIC value equal to that of polymyxin B; a measured MIC value less than the corresponding MIC value measured for polymyxin B; a measured MIC value greater than the corresponding MIC value measured for polymyxin B; conditions: relative to polymyxin B; some strains multi-drug resistant
Description: as §1, §2, §3, §4, §5, §6, §7

[15] = Acute toxicity testing in rats; assay type: in vivo, Sprague-Dawley rat; conditions: 1 mg/kg i.v., female Sprague-Dawley rat
Description: One female Sprague-Dawley rat was administered a 1 mg/kg dose of the test Compound 5. Clinical observations were taken immediately following the administration of compound and at 0.5, 1, 2 and 4 hours post-dose.

[16] = tested on: P. aeruginosa #44; experiment: MIC against P. aeruginosa #44 in polystyrene plate; assay type: cell-based, Pseudomonas aeruginosa; conditions: range of repeated tests
Description: P. aeruginosa #44 were grown in cation adjusted Mueller Hinton Broth (caMHB) (catalog#B12322; Fisher Scientific, Pittsburgh, Pa.) at 37° C. MIC testing was performed according to Clinical and Laboratory Standards Institute [CLSI, formerly National Committee for Clinical Laboratory Standards (NCCLS), Wayne, Pa.] guidelines for broth microdilution. […]

[17] = neutropenic mouse lung, P. aeruginosa 44, SC, BID×1 d, cfu 24 hours post-infection

CC(C)C[C@@H]1NC(=O)[C@@H](Cc2ccccc2)NC(=O)[C@H](CCN)NC(=O)C(NC(=O)[C@H](CCN)NC(=O)[C@@H](NC(=O)[C@H](CCN)NC(=O)Nc2ccccc2Cl)C(C)O)CCNC(=O)[C@H](C(C)O)NC(=O)[C@H](CCN)NC(=O)C(CCN)NC1=O (stereo partly shown) [Formula (II) comparator] ({NH(2-ClPh)-CO}-[Dab][Thr(3ξ)][Dab][ξDab][Dab][dF]L[ξDab][Dab][Thr(3ξ)]; lactam 4-C)
K. pneu MIC 50 [1]: C
K. pneu MIC 90 [1]: C
E. coli MIC50 [2]: C
E. coli MIC90 [2]: C
P. aeruginosa MIC50 [3]: B
P. aeruginosa MIC90 [3]: A
A. baumannii MIC50 [4]: C
A. baumannii MIC90 [4]: C
P. aeru MIC 50 ([5]; listed as 2): B and A
P. aeru MIC 90 ([5]; listed as 2): A and C
MIC E. coli 1527 [6]: C
MIC K. pneumoniae 933 [7]: C
E. coli MIC50 [8]: C
E. coli MIC90 [8]: C
K. pneumoniae MIC50 [9]: C
K. pneumoniae MIC90 [9]: C
Lungs cleared within one log10 of limit of detection [10]: not seen
ED−3log10 ([10]; historical data): approximately 12 mg/kg
MIC A. baumannii 1570 [11]: C
MIC P. aeruginosa 44 [12]: C
MIC P. aeruginosa #44, 0% surfactant ([13]; relative to polymyxin B): C
MIC P. aeruginosa #44, 10% surfactant ([13]; relative to polymyxin B): B
MIC P. aeruginosa #44, 40% surfactant ([13]; relative to polymyxin B): A
A. baum MIC 50 [14]: C
A. baum MIC 90 [14]: C

CC[C@H](C)CCCCC(=O)N[C@@H](CCN)C(=O)N[C@H](C(=O)N[C@H](CCN)C(=O)N[C@H]1CCNC(=O)[C@H]([C@@H](C)O)NC(=O)[C@H](CCN)NC(=O)[C@H](CCN)NC(=O)[C@H]([C@@H](C)O)NC(=O)[C@@H](CC(C)C)NC(=O)[C@H](CCN)NC1=O)[C@@H](C)O [Native Polymyxin A, Polymyxin A] (X1-[Dab]T[dDab][Dab][Dab][dL]T[Dab][Dab]T; lactam 4-C)
K. pneu MIC 50 [1]: C
K. pneu MIC 90 [1]: C
E. coli MIC50 [2]: B
E. coli MIC90 [2]: A
P. aeruginosa MIC50 [3]: A
P. aeruginosa MIC90 [3]: C
Acute (anaphylactoid) observations [15]: no clinical signs were observed
A. baumannii MIC50 [4]: A
A. baumannii MIC90 [4]: A
P. aeru MIC 50 [5]: A
P. aeru MIC 90 [5]: C
MIC E. coli 1527 [6]: B
MIC K. pneumoniae 933 [7]: A
E. coli MIC50 [8]: B
E. coli MIC90 [8]: A
K. pneumoniae MIC50 [9]: C
K. pneumoniae MIC90 [9]: C
Lungs cleared within one log10 of limit of detection [10]: not observed
ED−3log10 [10, 17]: 16.22 mg/kg
MIC A. baumannii 1570 [11]: C
MIC P. aeruginosa 44 [12]: C
MIC P. aeruginosa #44, 0% surfactant ([13]; relative to polymyxin B): C
MIC P. aeruginosa #44, 10% surfactant ([13]; relative to polymyxin B): B
MIC P. aeruginosa #44, 40% surfactant ([13]; relative to polymyxin B): B
A. baum MIC 50 [14]: A
A. baum MIC 90 [14]: A

CCC(C)CCCCC(=O)N[C@@H](CCN)C(=O)N[C@H](C(=O)N[C@@H](CCN)C(=O)NC1CCNC(=O)[C@H](C(C)O)NC(=O)[C@H](CCN)NC(=O)C(CCN)NC(=O)[C@H](CC(C)C)NC(=O)[C@@H](Cc2ccccc2)NC(=O)[C@H](CCN)NC1=O)C(C)O (stereo partly shown) [Polymyxin B] ({Octanoyl(6-Me)}-[Dab][Thr(3ξ)][Dab][ξDab][Dab][dF]L[ξDab][Dab][Thr(3ξ)]; lactam 4-C)
K. pneu MIC 50 [1]: A
K. pneu MIC 90 [1]: A
E. coli MIC50 [2]: A
E. coli MIC90 [2]: A
P. aeruginosa MIC50 [3]: A
P. aeruginosa MIC90 [3]: A
MIC against P. aeruginosa #44 In polystyrene plate [16]: 1-2 micrograms/ml
A. baumannii MIC50 [4]: A
A. baumannii MIC90 [4]: A
P. aeru MIC 50 [5]: A
P. aeru MIC 90 [5]: A
MIC E. coli 1527 [6]: A
MIC K. pneumoniae 933 [7]: A
E. coli MIC50 [8]: A
E. coli MIC90 [8]: A
K. pneumoniae MIC50 [9]: A
K. pneumoniae MIC90 [9]: A
Lungs cleared within one log10 of limit of detection [10]: not observed
ED−3log10 [10, 17]: > 20 mg/kg
ED−3log10 ([10]; neutropenic mouse lung, P. aeruginosa 44, SC, BID×1 d, cfu 24 hours post-infection, listed as PMB): 20.6 mg/kg
MIC A. baumannii 1570 [11]: A
MIC P. aeruginosa 44 [12]: A
MIC P. aeruginosa #44, 0% surfactant [13]: 0.06 micrograms/ml
MIC P. aeruginosa #44, 10% surfactant [13]: 8 micrograms/ml
MIC P. aeruginosa #44, 40% surfactant [13]: >32 micrograms/ml
A. baum MIC 50 [14]: A
A. baum MIC 90 [14]: A

Colistin
MIC against P. aeruginosa #44 In polystyrene plate [16]: 2-4 micrograms/ml
